Assays:
ACE2 = ACE2 degradation in WI-38 cells (cycloheximide time course, BafA1 lysosome inhibition); format: cell-based, human; settings: WI-38 cells pretreated with BafA1 10 μM 30 min, then JGF 10 μg/mL 2 h
Method: Actin was used as the internal control. […] Actin was used as the internal control.
For example, it was examined whether JGF-induced ACE2 degradation is dependent on proteasome or lysosomal systems. Initially, the half-life of ACE2 in WI-38 cells was analyzed following treatment with cycloheximide (CHX), which is a ribosome inhibitor that blocks protein synthesis.

[1] = test system: SARS-CoV-2 S-mediated membrane fusion; test: SARS-CoV-2 spike-mediated cell-cell fusion (syncytium formation) assay; format: cell-based

Compound	ACE2 level after JGF treatment with lysosome inhibitor (ACE2)	Formation of syncytium [1]
CO/C1=C\C(C)=C\[C@@H](C)[C@@H](O)[C@@H](C)C/C(C)=C/C=C/[C@H](OC)[C@@H]([C@@H](C)[C@@H](O)[C@H](C)[C@@]2(O)C[C@@H](O)[C@H](C)[C@@H](C(C)C)O2)OC1=O [BafA1]	recovered the ACE2 level	–
CN(C)C(=O)COC(=O)Cc1ccc(OC(=O)c2ccc(NC(=N)N)cc2)cc1 [camostat]	–	inhibition of syncytium formation

Reference: patent US12653858B2, “Herbal composition, preparation method thereof and method for preventing or treating respiratory disorder by administering the same” (priority 2021, dated 2026)
